Reference: ChEMBL document CHEMBL5331051, “Cationic, amphipathic small molecules based on a triazine-piperazine-triazine scaffold as a new class of antimicrobial agents” (Eur J Med Chem, 2022)
Values after ≈ are worked out from the molar mass of the structure shown. Active and inactive are the calls of the source. The rule behind the calls is not given here. Positions of bridges follow the written chain, without caps; N, C: chain ends. Non-standard residues stand in square brackets, D forms with d. Residues, ends and D or L forms follow the SMILES beside them. *: point of attachment. Heptanoyl(6-Me) = CC(C)CCCCC(=O)*; dDab = NCC[C@@H](N)C(=O)O; Dab = NCC[C@H](N)C(=O)O

What was measured:
Pseudomonas aeruginosa [1] = assay: Antibacterial activity against Pseudomonas aeruginosa KCTC 1637 strain assessed as bacterial growth inhibition measured at 18 to 24 hrs by microdilution assay; assay type: functional; settings: time 18-24 hrs
Staphylococcus aureus [2] = assay: Antibacterial activity against Staphylococcus aureus KCTC 1621 strain assessed as bacterial growth inhibition measured at 18 to 24 hrs by microdilution assay; assay type: functional; settings: time 18-24 hrs
Escherichia coli = assay: Antibacterial activity against Escherichia coli KCTC 1682 strain assessed as bacterial growth inhibition measured at 18 to 24 hrs by microdilution assay; assay type: functional; settings: time 18-24 hrs
Erythrocyte = assay: Hemolytic activity in sheep RBC assessed as minimal hemolytic concentration causing 10% hemolysis incubated for 1 hr by ELISA; assay type: toxicity, cell-based, Ovis aries
[3] = tested on: Staphylococcus epidermidis; assay: Antibacterial activity against Staphylococcus epidermidis KCTC 1917 strain assessed as bacterial growth inhibition measured at 18 to 24 hrs by microdilution assay; assay type: functional; settings: time 18-24 hrs
Staphylococcus aureus [4] = assay: Antibacterial activity against methicillin-resistant Staphylococcus aureus CCARM 3095 strain assessed as bacterial growth inhibition measured at 18 to 24 hrs by microdilution assay; assay type: functional; settings: time 18-24 hrs
Staphylococcus aureus [5] = assay: Antibacterial activity against methicillin-resistant Staphylococcus aureus CCARM 3090 strain assessed as bacterial growth inhibition measured at 18 to 24 hrs by microdilution assay; assay type: functional; settings: time 18-24 hrs
Pseudomonas aeruginosa [6] = assay: Bactericidal activity against multidrug-resistant Pseudomonas aeruginosa CCARM 2095 measured after 24 hrs by time-kill kinetics assay; assay type: functional, organism-based
Staphylococcus aureus [7] = assay: Antibacterial activity against methicillin-resistant Staphylococcus aureus CCARM 3089 strain assessed as bacterial growth inhibition measured at 18 to 24 hrs by microdilution assay; assay type: functional; settings: time 18-24 hrs
Enterococcus faecium = assay: Antibacterial activity against vancomycin-resistant Enterococcus faecium ATCC 51559 strain assessed as bacterial growth inhibition measured at 18 to 24 hrs by microdilution assay; assay type: functional; settings: time 18-24 hrs
Pseudomonas aeruginosa [8] = assay: Additive antibacterial activity against multidrug-resistant Pseudomonas aeruginosa CCARM 2095 strain assessed as bacterial growth inhibition by checkerboard assay; assay type: functional
Pseudomonas aeruginosa [9] = assay: Antibacterial activity against multidrug-resistant Pseudomonas aeruginosa CCARM 2109 strain assessed as bacterial growth inhibition measured at 18 to 24 hrs by microdilution assay; assay type: functional; settings: time 18-24 hrs
Pseudomonas aeruginosa [10] = assay: Bacteriostatic activity against multidrug-resistant Pseudomonas aeruginosa CCARM 2095 measured after 24 hrs by time-kill kinetics assay; assay type: functional, organism-based
Pseudomonas aeruginosa [11] = assay: Antibacterial activity against multidrug-resistant Pseudomonas aeruginosa CCARM 2095 strain assessed as bacterial growth inhibition measured at 18 to 24 hrs by microdilution assay; assay type: functional; settings: time 18-24 hrs
Pseudomonas aeruginosa [12] = assay: Synergistic antibacterial activity against multidrug-resistant Pseudomonas aeruginosa CCARM 2095 strain assessed as bacterial growth inhibition by checkerboard assay; assay type: functional
Staphylococcus aureus [13] = assay: Antibacterial activity against methicillin-resistant Staphylococcus aureus CCARM 3089 strain assessed as bacterial growth inhibition by checkerboard assay; assay type: functional
Pseudomonas aeruginosa [14] = assay: Antibiofilm activity against multidrug-resistant Pseudomonas aeruginosa assessed as inhibition of biofilm formation; assay type: functional
Pseudomonas aeruginosa [15] = assay: Antibiofilm activity against multidrug-resistant Pseudomonas aeruginosa assessed as biofilm eradication; assay type: functional
Lipopolysaccharide (LPS) [16] = assay: Binding affinity to Escherichia coli O111:B4 lipopolysaccharide assessed as suppression of FTIC labeled LPS binding to mouse RAW264.7 cells at 20 ug/ml pretreated with LPS followed by compound addition by flow cytometer assay (reference value: 67.4%); assay type: cell-based; settings: dose 20.0 µg/ml
Lipopolysaccharide (LPS) [17] = assay: Binding affinity to Escherichia coli O111:B4 lipopolysaccharide assessed as suppression of FTIC labeled LPS binding to mouse RAW264.7 cells at 20 ug/ml pretreated LPS with cells for 1 hr followed by compound addition measured after 1 hr by flow cytometer assay (reference value: 48.12%); assay type: cell-based; settings: dose 20.0 µg/ml

N=C(N)NCCCCNc1nc(NCCCCN)nc(N2CCN(c3nc(NCCCCN)nc(NCCCCN)n3)CC2Cc2ccccc2)n1 (configuration not stated)
MIC (Pseudomonas aeruginosa [1]): 11.1 µM (≈ 8 µg/mL)
MIC (Staphylococcus aureus [2]): 11.1 µM (≈ 8 µg/mL)
MIC (Escherichia coli): 22.2 µM (≈ 16 µg/mL)
MHC (Erythrocyte): > 355.8 µM
MIC [3]: 5.6 µM (≈ 4.04 µg/mL)

N=C(N)NCCN(CCNC(=N)N)c1nc(NCc2ccccc2)nc(N2CCN(c3nc(NCc4ccc5ccccc5c4)nc(N(CCNC(=N)N)CCNC(=N)N)n3)C(Cc3ccccc3)C2)n1 (configuration not stated)
MIC (Pseudomonas aeruginosa [1]): 16.6 µM (≈ 16 µg/mL)
MIC (Staphylococcus aureus [2]): 4.1 µM (≈ 3.96 µg/mL)
MIC (Escherichia coli): 16.6 µM (≈ 16 µg/mL)
MHC (Erythrocyte): 37.3 µM
MIC [3]: 4.1 µM (≈ 3.96 µg/mL)

NCCN(CCN)c1nc(NCc2ccccc2)nc(N2CCN(c3nc(NCc4ccc5ccccc5c4)nc(N(CCN)CCN)n3)C(Cc3ccccc3)C2)n1 (configuration not stated)
MIC (Pseudomonas aeruginosa [1]): 20 µM (≈ 15.9 µg/mL)
MIC (Staphylococcus aureus [2]): 5 µM (≈ 3.99 µg/mL)
MIC (Escherichia coli): 40 µM (≈ 31.9 µg/mL)
MHC (Erythrocyte): > 320 µM
MIC [3]: 5 µM (≈ 3.99 µg/mL)

NCCCCNc1nc(NCCCCN)nc(N2CCN(c3nc(NCCCCN)nc(NCCCCN)n3)C(Cc3ccccc3)C2)n1 (configuration not stated)
MIC (Pseudomonas aeruginosa [1]): 47 µM (≈ 31.9 µg/mL)
MIC (Staphylococcus aureus [2]): 23.5 µM (≈ 16 µg/mL)
MIC (Escherichia coli): 47 µM (≈ 31.9 µg/mL)
MHC (Erythrocyte): > 376.3 µM
MIC [3]: 23.5 µM (≈ 16 µg/mL)

Cc1onc(-c2ccccc2)c1C(=O)N[C@@H]1C(=O)N2[C@@H]1SC(C)(C)[C@@H]2C(=O)O [OXACILLIN]
MIC (Staphylococcus aureus [4]): > 5100 µM
MIC (Staphylococcus aureus [5]): > 5100 µM
Activity (Pseudomonas aeruginosa [6]): inactive
MIC (Staphylococcus aureus [7]): 2550 µM (≈ 1020 µg/mL)
MIC (Enterococcus faecium): 2180 µM (≈ 873 µg/mL)
MIC (Pseudomonas aeruginosa [8]): 1020 µg/mL
MIC (Pseudomonas aeruginosa [9]): 5100 µM (≈ 2050 µg/mL)
Activity (Pseudomonas aeruginosa [10]): inactive
MIC (Pseudomonas aeruginosa [11]): 5100 µM (≈ 2050 µg/mL)
MIC (Pseudomonas aeruginosa [12]): 1020 µg/mL
MIC (Staphylococcus aureus [13]): 1020 µg/mL

N=C(N)NCCCCNc1nc(NCCCCNC(=N)N)nc(N2CC(Cc3ccccc3)N(c3nc(NCCCCNC(=N)N)nc(NCCCCNC(=N)N)n3)CC2Cc2ccccc2)n1 (configuration not stated)
MIC (Pseudomonas aeruginosa [1]): 8.5 µM (≈ 7.97 µg/mL)
MIC (Staphylococcus aureus [2]): 8.5 µM (≈ 7.97 µg/mL)
MBEC50 (Pseudomonas aeruginosa [14]): 17.1 µM
MBEC90 (Pseudomonas aeruginosa [14]): 68.3 µM
MBIC (Pseudomonas aeruginosa [14]): 34.1 µM
MBIC50 (Pseudomonas aeruginosa [14]): 8.5 µM
MIC (Escherichia coli): 8.5 µM (≈ 7.97 µg/mL)
MBEC50 (Pseudomonas aeruginosa [15]): 17.1 µM
MBEC90 (Pseudomonas aeruginosa [15]): 68.3 µM
MHC (Erythrocyte): > 273.2 µM
MIC [3]: 8.5 µM (≈ 7.97 µg/mL)

COLISTIN
MIC (Staphylococcus aureus [4]): 13.8 µM
MIC (Staphylococcus aureus [5]): 27.7 µM
MIC (Staphylococcus aureus [7]): 27.7 µM
MIC (Enterococcus faecium): 13.8 µM
MIC (Pseudomonas aeruginosa [9]): 27.7 µM
MIC (Pseudomonas aeruginosa [11]): 55.4 µM
MIC (Staphylococcus aureus [13]): 512 µg/mL

N=C(N)NCCCNc1nc(NCCCNC(=N)N)nc(N2CC(Cc3ccccc3)N(c3nc(NCCCNC(=N)N)nc(NCCCNC(=N)N)n3)CC2Cc2ccccc2)n1 (configuration not stated)
MIC (Pseudomonas aeruginosa [1]): 18.1 µM (≈ 15.9 µg/mL)
MIC (Staphylococcus aureus [2]): 4.5 µM (≈ 3.97 µg/mL)
MBEC50 (Pseudomonas aeruginosa [14]): 18.1 µM
MBEC90 (Pseudomonas aeruginosa [14]): 145.2 µM
MBIC (Pseudomonas aeruginosa [14]): 36.3 µM
MBIC50 (Pseudomonas aeruginosa [14]): 4.5 µM
MIC (Escherichia coli): 9.1 µM (≈ 8.02 µg/mL)
MBEC50 (Pseudomonas aeruginosa [15]): 18.1 µM
MBEC90 (Pseudomonas aeruginosa [15]): 145.2 µM
MHC (Erythrocyte): > 290.3 µM
MIC [3]: 9.1 µM (≈ 8.02 µg/mL)

N=C(N)NCCCN(CCCNC(=N)N)c1nc(NCc2ccccc2)nc(N2CC(Cc3ccccc3)N(c3nc(NCc4ccccc4)nc(N(CCCNC(=N)N)CCCNC(=N)N)n3)CC2Cc2ccccc2)n1 (configuration not stated)
MIC (Pseudomonas aeruginosa [1]): 8.2 µM (≈ 8.7 µg/mL)
MIC (Staphylococcus aureus [2]): 4.4 µM (≈ 4.67 µg/mL)
MIC (Escherichia coli): 16.5 µM (≈ 17.5 µg/mL)
MHC (Erythrocyte): 226.4 µM
MIC [3]: 4.1 µM (≈ 4.35 µg/mL)

CC(C)CCCCC(=O)N[C@@H](CCN)C(=O)N[C@H](C(=O)N[C@@H](CCN)C(=O)N[C@H]1CCNC(=O)[C@H]([C@@H](C)O)NC(=O)[C@H](CCN)NC(=O)[C@H](CCN)NC(=O)[C@H](CC(C)C)NC(=O)[C@@H](Cc2ccccc2)NC(=O)[C@@H](CCN)NC1=O)[C@@H](C)O ({Heptanoyl(6-Me)}-[Dab]T[Dab][Dab][dDab][dF]L[Dab][Dab]T; lactam 4-C)
Flu intensity (Lipopolysaccharide (LPS) [16]): 12.3%
Flu intensity (Lipopolysaccharide (LPS) [17]): 45.3%
